Test results reported in the supplement of paper PMC10307832.

Assays:
Experiment in all cases: relative viability (nuclei count vs DMSO), 5 days (fraction); higher = more cells survive
NCI-H1355 = tested on: NCI-H1355
Procedure, shortened: (§1)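 Medians of duplicate plates are given as relative viability. That measure is the nuclei count in treated wells divided by the count in vehicle wells. Counts were taken on 4× images of lung cancer cell lines in 1536-well plates, 5 days after pin-tool dosing the day after seeding with one drug alone or a fixed anchor-drug dose plus five library-drug doses (not always all listed) in √10 steps.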

NCI-H2085 = tested on: NCI-H2085
Procedure, shortened: as §1

LCLC-103H = tested on: LCLC-103H
Procedure, shortened: as §1

LC-2-ad = tested on: LC-2-ad
Procedure, shortened: as §1

A-427 = tested on: A-427
Procedure, shortened: as §1

SK-MES-1 = tested on: SK-MES-1
Procedure, shortened: as §1

COR-L 105 = tested on: COR-L 105
Procedure, shortened: as §1

NCI-H441 = tested on: NCI-H441
Procedure, shortened: as §1

COR-L23 = tested on: COR-L23
Procedure, shortened: as §1

NCI-H647 = tested on: NCI-H647
Procedure, shortened: as §1

NCI-H2342 = tested on: NCI-H2342
Procedure, shortened: as §1

NCI-H1651 = tested on: NCI-H1651
Procedure, shortened: as §1

201T = tested on: 201T
Procedure, shortened: as §1

ChaGo-K-1 = tested on: ChaGo-K-1
Procedure, shortened: as §1

NCI-H322M = tested on: NCI-H322M
Procedure, shortened: as §1

NCI-H1915 = tested on: NCI-H1915
Procedure, shortened: as §1

NCI-H2126 = tested on: NCI-H2126
Procedure, shortened: as §1

NCI-H23 = tested on: NCI-H23
Procedure, shortened: as §1

NCI-H1993 = tested on: NCI-H1993
Procedure, shortened: as §1

H3255 = tested on: H3255
Procedure, shortened: as §1

NCI-H2087 = tested on: NCI-H2087
Procedure, shortened: as §1

NCI-H520 = tested on: NCI-H520
Procedure, shortened: as §1

RERF-LC-KJ = tested on: RERF-LC-KJ
Procedure, shortened: as §1

HOP-62 = tested on: HOP-62
Procedure, shortened: as §1

SMILES: Nc1cccc2c1CN(C1CCC(=O)NC1=O)C2=O (stereo not drawn) [Lenalidomide] + COc1cc2c(Oc3ccc(NC(=O)C4(C(=O)Nc5ccc(F)cc5)CC4)cc3F)ccnc2cc1OCCCN1CCOCC1 [Foretinib] (partner 0.25 µM)
- relative viability (NCI-H1355; first compound 0.253 µM): 0.973
- relative viability (NCI-H1355; first compound 2.53 µM): 0.901
- relative viability (NCI-H1355; first compound 8 µM): 0.808
- relative viability (NCI-H2085; first compound 0.253 µM): 1.04
- relative viability (NCI-H2085; first compound 0.8 µM): 1.11
- relative viability (NCI-H2085; first compound 2.53 µM): 0.929
- relative viability (NCI-H2085; first compound 8 µM): 1.07
- relative viability (LCLC-103H; first compound 0.253 µM): 0.761
- relative viability (LCLC-103H; first compound 0.8 µM): 0.806
- relative viability (LCLC-103H; first compound 2.53 µM): 0.888
- relative viability (LCLC-103H; first compound 8 µM): 0.682
- relative viability (LC-2-ad; first compound 0.253 µM): 0.92
- relative viability (LC-2-ad; first compound 2.53 µM): 1.05
- relative viability (LC-2-ad; first compound 8 µM): 0.96
- relative viability (A-427; first compound 0.253 µM): 1.11
- relative viability (A-427; first compound 0.8 µM): 0.93
- relative viability (A-427; first compound 2.53 µM): 1.13
- relative viability (A-427; first compound 8 µM): 1.11
- relative viability (SK-MES-1; first compound 0.253 µM): 0.944
- relative viability (SK-MES-1; first compound 0.8 µM): 0.991
- relative viability (SK-MES-1; first compound 2.53 µM): 1.02
- relative viability (SK-MES-1; first compound 8 µM): 0.844
- relative viability (COR-L 105; first compound 0.253 µM): 0.855
- relative viability (COR-L 105; first compound 0.8 µM): 0.822
- relative viability (COR-L 105; first compound 2.53 µM): 1.12
- relative viability (COR-L 105; first compound 8 µM): 1.16
- relative viability (NCI-H441; first compound 0.253 µM): 1
- relative viability (NCI-H441; first compound 0.8 µM): 0.722
- relative viability (NCI-H441; first compound 2.53 µM): 1.16
- relative viability (NCI-H441; first compound 8 µM): 0.795
- relative viability (COR-L23; first compound 0.253 µM): 0.897
- relative viability (COR-L23; first compound 0.8 µM): 0.998
- relative viability (COR-L23; first compound 2.53 µM): 1.08
- relative viability (COR-L23; first compound 8 µM): 1.15
- relative viability (NCI-H647; first compound 0.253 µM): 0.856
- relative viability (NCI-H647; first compound 0.8 µM): 1.12
- relative viability (NCI-H647; first compound 2.53 µM): 1.21
- relative viability (NCI-H647; first compound 8 µM): 1.11
- relative viability (NCI-H2342; first compound 0.253 µM): 1.08
- relative viability (NCI-H2342; first compound 0.8 µM): 1.01
- relative viability (NCI-H2342; first compound 2.53 µM): 1.11
- relative viability (NCI-H2342; first compound 8 µM): 0.898
- relative viability (NCI-H1651; first compound 0.253 µM): 0.837
- relative viability (NCI-H1651; first compound 0.8 µM): 0.963
- relative viability (NCI-H1651; first compound 2.53 µM): 0.914
- relative viability (NCI-H1651; first compound 8 µM): 0.804
- relative viability (201T; first compound 0.253 µM): 1.08
- relative viability (201T; first compound 2.53 µM): 1.23
- relative viability (201T; first compound 8 µM): 1.13
- relative viability (ChaGo-K-1; first compound 0.253 µM): 0.949
- relative viability (ChaGo-K-1; first compound 0.8 µM): 0.873
- relative viability (ChaGo-K-1; first compound 2.53 µM): 0.975
- relative viability (ChaGo-K-1; first compound 8 µM): 1.06
- relative viability (NCI-H322M; first compound 0.253 µM): 0.962
- relative viability (NCI-H322M; first compound 0.8 µM): 1.05
- relative viability (NCI-H322M; first compound 2.53 µM): 1.11
- relative viability (NCI-H322M; first compound 8 µM): 0.902
- relative viability (NCI-H1915; first compound 0.253 µM): 1.07
- relative viability (NCI-H1915; first compound 0.8 µM): 1.03
- relative viability (NCI-H1915; first compound 2.53 µM): 1.14
- relative viability (NCI-H1915; first compound 8 µM): 1.14
- relative viability (NCI-H2126; first compound 0.253 µM): 1.33
- relative viability (NCI-H2126; first compound 0.8 µM): 1.13
- relative viability (NCI-H2126; first compound 2.53 µM): 1.39
- relative viability (NCI-H2126; first compound 8 µM): 1.14
- relative viability (NCI-H23; first compound 0.253 µM): 0.926
- relative viability (NCI-H23; first compound 0.8 µM): 1.13
- relative viability (NCI-H23; first compound 2.53 µM): 0.847
- relative viability (NCI-H23; first compound 8 µM): 1.03
- relative viability (NCI-H1993; first compound 0.253 µM): 0.739
- relative viability (NCI-H1993; first compound 0.8 µM): 0.658
- relative viability (NCI-H1993; first compound 2.53 µM): 0.775
- relative viability (NCI-H1993; first compound 8 µM): 0.707
- relative viability (H3255; first compound 0.253 µM): 0.733
- relative viability (H3255; first compound 0.8 µM): 0.825
- relative viability (H3255; first compound 2.53 µM): 0.95
- relative viability (H3255; first compound 8 µM): 0.727
- relative viability (NCI-H2087; first compound 0.253 µM): 0.801
- relative viability (NCI-H2087; first compound 0.8 µM): 1.17
- relative viability (NCI-H2087; first compound 2.53 µM): 1.17
- relative viability (NCI-H2087; first compound 8 µM): 1.28
- relative viability (NCI-H520; first compound 0.253 µM): 0.805
- relative viability (NCI-H520; first compound 0.8 µM): 0.627
- relative viability (NCI-H520; first compound 2.53 µM): 0.875
- relative viability (NCI-H520; first compound 8 µM): 0.711
- relative viability (RERF-LC-KJ; first compound 0.253 µM): 0.891
- relative viability (RERF-LC-KJ; first compound 0.8 µM): 0.886
- relative viability (RERF-LC-KJ; first compound 2.53 µM): 0.962
- relative viability (RERF-LC-KJ; first compound 8 µM): 0.793
- relative viability (HOP-62; first compound 0.253 µM): 0.989
- relative viability (HOP-62; first compound 0.8 µM): 1.03
- relative viability (HOP-62; first compound 2.53 µM): 1.28
- relative viability (HOP-62; first compound 8 µM): 1.2
